Where two headings read alike, the source gives them in different places. Marks after values point to notes of the source that are not given here.
What was measured:
[1] = system: autophagy (LC3-II puncta) in VeroE6 cells; experiment: Autophagy inhibition assay, LC3-II immunofluorescence in VeroE6 cells; format: cell-based; details: for effect on autophagy (LC3-II accumulation), in words: 10 μM, 4 h, compared to CQ
in vitro [2] = details: chlorocebus sabaeus
in vitro [3] = details: human
HCoV-OC43 = experiment: microbe, parasite or virus in culture; format: cell-based; details: Betacoronavirus 1, OC43, HEL 299, read-out: HCoV-OC43 EC50
SARS-CoV-2 = experiment: microbe, parasite or virus in culture; format: cell-based; details: […], mean ± SD of duplicate experiments; for EC50: Severe acute respiratory syndrome coronavirus 2, read-out: Anti-SARS-CoV-2 activity EC50
VeroE6 cells = details: uninfected VeroE6 cells, MTS assay; mean ± SD of duplicate experiments
HCoV-229E = experiment: microbe, parasite or virus in culture; format: cell-based; details: Human coronavirus 229E, HEL 299, read-out: HCoV-229E EC50
SARS-CoV-2 nsp13 ATPase = SARS-CoV-2 nsp13 ATPase (Severe acute respiratory syndrome coronavirus 2, UniProt P0DTD1); format: biochemical; details: for IC50: read-out: helicase ATPase IC50
[4] = biological target: SARS-CoV-2 nsp13 helicase (Severe acute respiratory syndrome coronavirus 2, UniProt P0DTD1); experiment: biochemical; format: biochemical; details: for IC50: SARS-CoV-2 nsp13 helicase-associated activity, read-out: helicase unwinding IC50; for remaining activity at 30 µM: in the presence of the highest concentration of tested compound (30 μM), read-out: helicase unwinding percentage of control
SARS-CoV-2 nsp12 RdRp = SARS-CoV-2 nsp12 RdRp (Severe acute respiratory syndrome coronavirus 2, UniProt P0DTD1); experiment: SARS-CoV-2 nsp12 RdRp activity, fluorescent-based assay; format: biochemical; details: in the presence of the highest concentration of tested compound (30 μM); read-out: RdRp percentage of control
[5] = SARS-CoV-2 nsp13 ATPase-associated activity
[6] = in the presence of the highest concentration of tested compound (30 μM; 3 μM for SSYA10-001)

Structure (SMILES) | CC50 (in vitro [2]) [µM] | CC50 (in vitro [3]) [µM] | EC50 (HCoV-OC43) [µM] | EC50 (SARS-CoV-2) [µM] | EC50 (HCoV-229E) [µM] | other results
CCN(CC)CCCC(C)Nc1ccnc2cc(Cl)ccc12 (stereo not shown) [Chloroquine, chloroquine, reference compound] | 83.4 ± 4.2 | 33.6 ± 1.3 | < 0.8 | – | – | increase in the intensity of the cytoplasmic LC3 puncta ([1]; 10 μM for 4 h): 9 fold
CCCOc1ccc(-c2cc(OCCN3CCN(Cc4ccccc4)CC3)c3ccccc3n2)cc1 [Compound 1f] | > 100 | > 100 | 92.3 ± 11 | 11.9 ± 5.5 | 61.3 ± 32.2 | VeroE6 cells CC50 (VeroE6 cells): lacked cytotoxicity
CCCOc1ccc(-c2cc(OCCN(CC)CC)c3cccc(OC)c3n2)cc1 [Compound 5a] | > 100 | 10.4 ± 0.8 | 0.6 ± 0.1 | 9.1 ± 3.05 | 1.3 ± 0.9 | –
CCCOc1ccc(-c2cc(OCCN3CCN(Cc4ccccc4)CC3)c3cccc(OC)c3n2)cc1 [Compound 5f] | > 100 | – | – | 35.9 ± 32.2 | – | melting point: 95 to 97 °C; VeroE6 cells CC50 (VeroE6 cells): lacked cytotoxicity
CCCOc1ccc(-c2cc(OCCN3CCc4cc(OC)c(OC)cc4C3)c3cccc(OC)c3n2)cc1 [Compound 5g] | > 100 | – | – | > 100 | – | effect on autophagy (LC3-II accumulation), in words [1]: minimal effect on the autophagy; Anti-SARS-CoV-2 activity EC50 (SARS-CoV-2): devoid of antiviral activity
CCCOc1ccc(-c2cc(OCCN3CCNCC3)c3cccc(OC)c3n2)cc1 [Compound 5i] | 30.3 ± 0.8 | 8 ± 1.3 | 1.7 ± 0.2 | 7.1 ± 4.2 | 0.3 ± 0.05 | –
CCCOc1ccc(-c2cc(OCCN3CCN(Cc4ccccc4)CC3)c3c(OC)cc(OC)cc3n2)cc1 [Compound 6f] | > 100 | 35.6 ± 0.2 | 1.9 ± 0.2 | 7.9 ± 5.6 | 2.2 ± 0.7 | IC50 (SARS-CoV-2 nsp13 ATPase; [5]): > 30 µM; helicase ATPase percentage of control (SARS-CoV-2 nsp13 ATPase; [6]): 96%; IC50 [4]: > 30 µM; remaining activity at 30 µM [4]: 55%; VeroE6 cells CC50 (VeroE6 cells): lacked cytotoxicity; remaining activity at 30 µM (SARS-CoV-2 nsp12 RdRp): 100%
CCCOc1ccc(-c2cc(OCCN3CCc4cc(OC)c(OC)cc4C3)c3c(OC)cc(OC)cc3n2)cc1 [Compound 6g] | > 100 | – | 1.5 ± 0.1 | 8.8 ± 5.6 | 2.9 ± 0.05 | IC50 (SARS-CoV-2 nsp13 ATPase; [5]): > 30 µM; helicase ATPase percentage of control (SARS-CoV-2 nsp13 ATPase; [6]): 90%; IC50 [4]: 0.42 ± 0.23 µM; remaining activity at 30 µM (SARS-CoV-2 nsp12 RdRp): 62%
CCCOc1ccc(-c2cc(OCCN(CC)CC)c3c(OC)ccc(OC)c3n2)cc1 [Compound 7a] | 24.6 ± 0.1 | 9.9 ± 0.8 | 2 ± 0.2 | 4.6 ± 0.2 | 0.7 ± 0.3 | –
CCCOc1ccc(-c2cc(OCCN3CCCC3)c3c(OC)ccc(OC)c3n2)cc1 [Compound 7j] | 89.8 ± 2.8 | 8.7 ± 0.8 | 1.8 ± 0.7 | 11.3 ± 2.1 | 0.6 ± 0.3 | –
CCCOc1ccc(-c2cc(OCCN3CCCCC3)c3c(OC)ccc(OC)c3n2)cc1 [Compound 7k] | 23.8 ± 5.7 | 95.3 ± 3.3 | 7.7 ± 3.3 | 2.7 ± 1.9 | 9.4 ± 3.6 | IC50 (SARS-CoV-2 nsp13 ATPase; [5]): > 30 µM; helicase ATPase percentage of control (SARS-CoV-2 nsp13 ATPase; [6]): 100%; IC50 [4]: 1.41 ± 0.64 µM; remaining activity at 30 µM (SARS-CoV-2 nsp12 RdRp): 100%
CCCOc1ccc(-c2cc(OCCN(CC)CC)c3cc(OC)c(OC)cc3n2)cc1 [Compound 8a] | 70.3 ± 23.7 | 9.2 ± 0.1 | 1.9 ± 0.4 | 5.1 ± 1.4 | 1.8 ± 0.4 | –
CCCOc1ccc(-c2cc(OCCN3CCCCC3)c3cc(OC)c(OC)cc3n2)cc1 [Compound 8k] | 11.1 ± 1.3 | 12.3 ± 1.1 | 1.6 ± 0.2 | 2.6 ± 1.4 | 0.2 ± 0.2 | –
CCCOc1ccc(-c2cc(OCCN(CC)CC)c3cc(OC)cc(OC)c3n2)cc1 [Compound 9a] | > 100 | 43.5 ± 5.6 | 2.2 ± 0.5 | 13 ± 10 | 3.5 ± 2.7 | –
CCCOc1ccc(-c2cc(OCCN3CCN(Cc4ccccc4)CC3)c3cc(OC)cc(OC)c3n2)cc1 [Compound 9f] | > 100 | – | – | > 100 | – | VeroE6 cells CC50 (VeroE6 cells): lacked cytotoxicity
CCCOc1ccc(-c2cc(OCCN3CCc4cc(OC)c(OC)cc4C3)c3cc(OC)cc(OC)c3n2)cc1 [Compound 9g] | > 100 | – | – | > 100 | – | effect on autophagy (LC3-II accumulation), in words [1]: minimal effect on the autophagy; Anti-SARS-CoV-2 activity EC50 (SARS-CoV-2): devoid of antiviral activity
CCCOc1ccc(-c2cc(OCCN3CCCC3)c3cc(OC)cc(OC)c3n2)cc1 [Compound 9j] | > 100 | > 100 | 22.7 ± 2.8 | 5.9 ± 2.4 | 40 ± 20.8 | IC50 (SARS-CoV-2 nsp13 ATPase; [5]): > 30 µM; helicase ATPase percentage of control (SARS-CoV-2 nsp13 ATPase; [6]): 100%; IC50 [4]: > 30 µM; remaining activity at 30 µM [4]: 57%; remaining activity at 30 µM (SARS-CoV-2 nsp12 RdRp): 100%
N#C[C@@]1(c2ccc3c(N)ncnn23)O[C@H](CO)[C@@H](O)[C@H]1O [GS-441524, reference compound] | – | > 100 | – | 0.7 ± 0.07 | 0.9 ± 0.1 | –
C=CCn1c(S)nnc1CSc1ccccc1[N+](=O)[O-] [SSYA10-001, reference compound] | – | – | – | – | – | helicase ATPase percentage of control (SARS-CoV-2 nsp13 ATPase): >3 (90%) ^d; IC50 (SARS-CoV-2 nsp13 ATPase): > 3 µM
